Measured values reported in patent publication US9701659B2, “Insecticidally active amide derivatives with sulfur-substituted phenyl or pyridine groups” (Syngenta Participations AG, priority 2014, dated 2017).
Each block holds one molecule with its values, some of them ahead of it.

Experiments:
[1] = test system: Spodoptera littoralis (Egyptian cotton leaf worm); assay: Example B1: activity against Spodoptera littoralis, larvicide, feeding/residual contact, preventive (cotton leaf discs); assay type: in vivo; conditions: foliar, 72 h, L1 larvae, 3 days after treatment, read-out: activity (mortality, repellent effect, feeding behaviour, growth regulation)
Excerpt: Activity Against Spodoptera littoralis (Egyptian Cotton Leaf Worm)
(§1) (Larvicide, Feeding/Residual Contact Activity, Preventive)
Cotton leaf discs were placed on agar in a 24-well microtiter plate and sprayed with test solutions. After drying, the leaf discs were infested with 5 L1 larvae. The samples were checked for mortality, repellent effect, feeding behaviour, and growth regulation 3 days after treatment (DAT).

[2] = test system: Diabrotica balteata (corn root worm); assay: Example B4: activity against Diabrotica balteata, larvae L2 on maize sprouts, feeding/contact, preventative; assay type: in vivo; conditions: 120 h, 5 days incubation, read-out: activity (larval mortality, growth regulation)
Procedure: Activity Against Diabrotica Balteata (Corn Root Worm)
(Larvae L2 on Maize Sprouts, Feeding/Contact, Preventative)
Maize sprouts, placed on an agar layer in 24 well micro titer plates were treated with test solutions by spraying. After drying, the MTPs were infested with L2 larvae (6-10 per well). After an incubation period of 5 days, samples were checked for larval mortality and growth regulation.

[3] = test system: Myzus persicae (green peach aphid); assay: Example B6: activity against Myzus persicae, feeding activity sachet test, mixed population; assay type: in vivo; conditions: 120 h, 5 days after infestation
Excerpt: (§2) Activity Against Myzus persicae (Green Peach Aphid)
(Feeding Activity Sachet Test), Mixed Population
Test compounds were applied by pipette into 24 well plates and mixed with Sucrose solution. The plates were closed with a stretched Parafilm. A plastic stencil with 24 holes is placed onto the plate and infested pea seedlings were placed directly on the Parafilm. The infested plate is closed with a gel blotting paper and another plastic stencil and then turned upside down. 5 days after infestation the samples were checked on mortality. Application rate: 12.5 ppm.

[4] = test system: Aedes aegypti (yellow fever mosquito); assay: Example B9: activity against Aedes aegypti, adult females on treated plates; assay type: in vivo; conditions: 200 ppm in ethanol; after 48 hours
Procedure: Activity Against Aedes aegypti (Yellow Fever Mosquito)
Test solutions, at an application rate of 200 ppm in ethanol, were applied to 12-well tissue culture plates. Once the deposits were dry, five, two to five days old adult female Aedes aegypti were added to each well, and sustained with a 10% sucrose solution in a cotton wool plug. Assessment of knockdown was made one hour after introduction, and mortality was assessed at 24 and 48 hours after introduction.

[5] = test system: Myzus persicae (green peach aphid); assay: Example B5: activity against Myzus persicae, feeding/residual contact, preventive, mixed population (sunflower leaf discs); assay type: in vivo; conditions: foliar, 144 h, mixed ages, 6 DAT, read-out: activity (mortality, special effects)
Procedure: as §2
(Feeding/Residual Contact Activity, Preventive), Mixed Population
Sunflower leaf discs were placed on agar in a 24-well microtiter plate and sprayed with test solutions. After drying, the leaf discs were infested with an aphid population of mixed ages. After an incubation period of 6 DAT, samples were checked for mortality and special effects (e.g. phytotoxicity).

[6] = test system: Plutella xylostella (diamond back moth); assay: Example B3: activity against Plutella xylostella, larvicide, feeding/residual contact, preventive (artificial diet); assay type: in vivo; conditions: 120 h, L2 larvae, 5 days incubation, read-out: activity (larval mortality, antifeedant, growth regulation)
Procedure: Activity Against Plutella xylostella (Diamond Back Moth)
as §1
24-well microtiter plate (MTP) with artificial diet was treated with test solutions by pipetting. After drying, the MTPs were infested with L2 larvae (10-15 per well). After an incubation period of 5 days, samples were checked for larval mortality, antifeedant and growth regulation.

[7] = test system: Myzus persicae (green peach aphid); assay: Example B7: activity against Myzus persicae, systemic/feeding activity, curative, mixed population (pea seedlings); assay type: in vivo; conditions: 144 h, roots in test solution, 6 days after introduction, read-out: activity (mortality, special effects on the plant)
Excerpt: as §2
(Systemic/Feeding Activity, Curative), Mixed Population
Roots of pea seedlings, infested with an aphid population of mixed ages, were placed directly in the test solutions. 6 days after introduction, samples were checked for mortality and special effects on the plant.

melting point: 195 to 197 °C
SMILES: CCS(=O)(=O)c1cc(C(F)(F)F)ccc1C(=O)/N=c1\sc(C(F)(F)F)nn1C

melting point: 123 to 125 °C
SMILES: CCS(=O)(=O)c1cc(C(F)(F)F)cnc1C(=O)/N=c1\sc(C(F)(F)C(F)(F)F)nn1C

melting point: 153 to 155 °C
SMILES: CCS(=O)(=O)c1cc(C(F)(F)F)cnc1C(=O)/N=c1\cc(C(F)(F)F)ccn1C

melting point: 167 to 169 °C
SMILES: CCS(=O)(=O)c1cc(C(F)(F)F)cnc1C(=O)/N=c1\ccc(SC(F)(F)F)cn1C

melting point: 163 to 165 °C
SMILES: CCS(=O)(=O)c1cc(C(F)(F)F)cnc1C(=O)/N=c1\scc(C(F)(F)F)n1C

SMILES: CCS(=O)(=O)c1cc(C(F)(F)F)cnc1C(=O)/N=c1\sc(C(F)(F)F)cn1C [P1, (N)-3-ethylsulfonyl-N-[3-methyl-5-(trifluoromethyl)thiazol-2-ylidene]-5-(trifluoromethyl)pyridine-2-carboxamide]
mortality at 400 ppm [1]: > 80%
mortality at 400 ppm [2]: > 80%

SMILES: CCSc1cccnc1C(=O)/N=c1\sc(C(F)(F)F)nn1C [P3, (N)-3-ethylsulfanyl-N-[3-methyl-5-(trifluoromethyl)-1,3,4-thiadiazol-2-ylidene]pyridine-2-carboxamide]
mortality at 12.5 ppm [3]: ≥ 80%
control of Aedes aegypti [4]: at least 80%
mortality at 400 ppm [5]: > 80%
mortality at 400 ppm [2]: > 80%

SMILES: CCSc1cc(C(F)(F)F)cnc1C(=O)/N=c1\sc(C(F)(F)F)nn1C [P4]
mortality at 400 ppm [6]: > 80%
mortality at 400 ppm [1]: > 80%
mortality at 400 ppm [2]: > 80%

SMILES: CCS(=O)(=O)c1cccnc1C(=O)/N=c1\sc(C(F)(F)F)nn1C [P5, (N)-3-ethylsulfonyl-N-[3-methyl-5-(trifluoromethyl)-1,3,4-thiadiazol-2-ylidene]pyridine-2-carboxamide]
mortality at 24 ppm [7]: ≥ 80%
mortality at 400 ppm [5]: > 80%

SMILES: CCS(=O)(=O)c1cc(C(F)(F)F)cnc1C(=O)/N=c1\sc(C(F)(F)F)nn1C [P6]
mortality at 400 ppm [6]: > 80%
mortality at 400 ppm [1]: > 80%
mortality at 400 ppm [2]: > 80%

SMILES: CCS(=O)(=O)c1cc(C(F)(F)F)cnc1C(=O)/N=c1\ccc(C(F)(F)F)nn1C [P9]
mortality at 400 ppm [5]: > 80%
